From ChEMBL document CHEMBL2169878 (J Med Chem, 2012)
Blank lines part the entries; values can stand above or below the molecule they belong to.

Tests used:
Salmonella typhimurium [1] = assay: Mutagenicity against Salmonella typhimurium TA100 assessed as revertants at […] incubated for 90 mins followed by drug washout measured after 2 days relative to positive control; type: toxicity, organism-based; conditions: salmonella enterica subsp. enterica serovar typhimurium
Homo sapiens [2] = assay: Volume of distribution in po dosed human measured in plasma; type: ADME, organism-based; conditions: in vivo
[3] = Cytotoxicity against mouse NIH3T3 cells after 24 hrs by neutral red dye uptake assay; type: cell-based; conditions: read-out: TC50
Salmonella typhimurium [4] = assay: Mutagenicity against Salmonella typhimurium TA98 assessed as revertants at 5 uM incubated for 90 mins followed by drug washout measured after 2 days relative to positive control; type: toxicity, organism-based; conditions: salmonella enterica subsp. enterica serovar typhimurium, 1.5 h
Salmonella typhimurium [5] = assay: Mutagenicity against Salmonella typhimurium TA100 assessed as revertants at 80 uM incubated for 90 mins followed by drug washout measured after 2 days relative to positive control; type: toxicity, organism-based; conditions: salmonella enterica subsp. enterica serovar typhimurium
Salmonella typhimurium [6] = assay: Mutagenicity against Salmonella typhimurium TA98 assessed as revertants at 80 uM incubated for 90 mins followed by drug washout measured after 2 days relative to positive control; type: toxicity, organism-based; conditions: salmonella enterica subsp. enterica serovar typhimurium, 1.5 h
Salmonella typhimurium [7] = assay: Mutagenicity against Salmonella typhimurium TA98 assessed as revertants at 10 uM incubated for 90 mins followed by drug washout measured after 2 days relative to positive control; type: toxicity, organism-based; conditions: salmonella enterica subsp. enterica serovar typhimurium, 1.5 h
Salmonella typhimurium [8] = assay: Mutagenicity against Salmonella typhimurium TA98 assessed as revertants at […] incubated for 90 mins followed by drug washout measured after 2 days relative to positive control; type: toxicity, organism-based; conditions: salmonella enterica subsp. enterica serovar typhimurium
Salmonella typhimurium [9] = assay: Mutagenicity against Salmonella typhimurium TA100 assessed as revertants at 10 uM incubated for 90 mins followed by drug washout measured after 2 days relative to positive control; type: toxicity, organism-based; conditions: salmonella enterica subsp. enterica serovar typhimurium
Salmonella typhimurium [10] = assay: Mutagenicity against Salmonella typhimurium TA98 assessed as revertants at 40 uM incubated for 90 mins followed by drug washout measured after 2 days relative to positive control; type: toxicity, organism-based; conditions: salmonella enterica subsp. enterica serovar typhimurium
Homo sapiens [11] = assay: Volume of distribution in po dosed human measured in whole blood; type: ADME, organism-based; conditions: in vivo
Salmonella typhimurium [12] = assay: Mutagenicity against Salmonella typhimurium TA100 assessed as revertants at 40 uM incubated for 90 mins followed by drug washout measured after 2 days relative to positive control; type: toxicity, organism-based; conditions: salmonella enterica subsp. enterica serovar typhimurium
[13] = Half life in po dosed human plasma; type: ADME, organism-based
Salmonella typhimurium [14] = assay: Mutagenicity against Salmonella typhimurium TA100 assessed as revertants at 20 uM incubated for 90 mins followed by drug washout measured after 2 days relative to positive control; type: toxicity, organism-based; conditions: salmonella enterica subsp. enterica serovar typhimurium, 1.5 h
[15] = Cytotoxicity against human HepG2 cells after 24 hrs by neutral red dye uptake assay; type: cell-based; conditions: read-out: TC50
Salmonella typhimurium [16] = assay: Mutagenicity against Salmonella typhimurium TA100 assessed as revertants at 5 uM incubated for 90 mins followed by drug washout measured after 2 days relative to positive control; type: toxicity, organism-based; conditions: salmonella enterica subsp. enterica serovar typhimurium, 1.5 h
Salmonella typhimurium [17] = assay: Mutagenicity against Salmonella typhimurium TA98 assessed as revertants at 20 uM incubated for 90 mins followed by drug washout measured after 2 days relative to positive control; type: toxicity, organism-based; conditions: salmonella enterica subsp. enterica serovar typhimurium, 1.5 h
Salmonella typhimurium [18] = assay: Mutagenicity against Salmonella typhimurium TA100 assessed as revertants at 70 uM incubated for 90 mins followed by drug washout measured after 2 days relative to positive control; type: toxicity, organism-based; conditions: salmonella enterica subsp. enterica serovar typhimurium
Salmonella typhimurium [19] = assay: Mutagenicity against Salmonella typhimurium TA98 assessed as revertants at 4 uM incubated for 90 mins followed by drug washout measured after 2 days relative to positive control; type: toxicity, organism-based; conditions: salmonella enterica subsp. enterica serovar typhimurium
Plasmodium falciparum [20] = assay: Antiplasmodial activity against chloroquine-sensitive Plasmodium falciparum D10 infected in human RBC after 72 hrs by parasite lactate dehydrogenase assay; type: functional, organism-based; conditions: D10, 72 h
Salmonella typhimurium [21] = assay: Mutagenicity against Salmonella typhimurium TA98 assessed as revertants at 9 uM incubated for 90 mins followed by drug washout measured after 2 days relative to positive control; type: toxicity, organism-based; conditions: salmonella enterica subsp. enterica serovar typhimurium
Salmonella typhimurium [22] = assay: Mutagenicity against Salmonella typhimurium TA98 assessed as revertants at 70 uM incubated for 90 mins followed by drug washout measured after 2 days relative to positive control; type: toxicity, organism-based; conditions: salmonella enterica subsp. enterica serovar typhimurium
Plasmodium falciparum [23] = assay: Antiplasmodial activity against chloroquine-resistant Plasmodium falciparum W2 infected in human RBC after 72 hrs by parasite lactate dehydrogenase assay; type: functional, organism-based; conditions: W2, 72 h
Salmonella typhimurium [24] = assay: Mutagenicity against Salmonella typhimurium TA100 assessed as revertants at 18 uM incubated for 90 mins followed by drug washout measured after 2 days relative to positive control; type: toxicity, organism-based; conditions: salmonella enterica subsp. enterica serovar typhimurium
Plasmodium falciparum [25] = assay: Antiplasmodial activity against chloroquine-sensitive Plasmodium falciparum NF54 infected in human erythrocytes assessed as inhibition of [3H]hypoxanthine incorporation incubated for 48 hrs prior to [3H]hypoxanthine addition measured after 48 hrs by liquid scintillation counting; type: functional, organism-based
Salmonella typhimurium [26] = assay: Mutagenicity against Salmonella typhimurium TA100 assessed as revertants at 2 uM incubated for 90 mins followed by drug washout measured after 2 days relative to positive control; type: toxicity, organism-based; conditions: salmonella enterica subsp. enterica serovar typhimurium
Plasmodium falciparum [27] = assay: Resistance ratio of IC50 for chloroquine-resistant Plasmodium falciparum K1 to IC50 for chloroquine-sensitive Plasmodium falciparum NF54; type: functional
Salmonella typhimurium [28] = assay: Mutagenicity against Salmonella typhimurium TA100 assessed as revertants at 4 uM incubated for 90 mins followed by drug washout measured after 2 days relative to positive control; type: toxicity, organism-based; conditions: salmonella enterica subsp. enterica serovar typhimurium, 1.5 h
Salmonella typhimurium [29] = assay: Mutagenicity against Salmonella typhimurium TA100 assessed as revertants at 35 uM incubated for 90 mins followed by drug washout measured after 2 days relative to positive control; type: toxicity, organism-based; conditions: salmonella enterica subsp. enterica serovar typhimurium
Salmonella typhimurium [30] = assay: Mutagenicity against Salmonella typhimurium TA98 assessed as revertants at 2 uM incubated for 90 mins followed by drug washout measured after 2 days relative to positive control; type: toxicity, organism-based; conditions: salmonella enterica subsp. enterica serovar typhimurium, 1.5 h
Plasmodium falciparum [31] = assay: Resistance ratio of IC50 for chloroquine-resistant Plasmodium falciparum W2 to IC50 for chloroquine-sensitive Plasmodium falciparum D10; type: functional
Salmonella typhimurium [32] = assay: Mutagenicity against Salmonella typhimurium TA98 assessed as revertants at 35 uM incubated for 90 mins followed by drug washout measured after 2 days relative to positive control; type: toxicity, organism-based; conditions: salmonella enterica subsp. enterica serovar typhimurium, 1.5 h
Salmonella typhimurium [33] = assay: Mutagenicity against Salmonella typhimurium TA98 assessed as revertants at 18 uM incubated for 90 mins followed by drug washout measured after 2 days relative to positive control; type: toxicity, organism-based; conditions: salmonella enterica subsp. enterica serovar typhimurium
Salmonella typhimurium [34] = assay: Mutagenicity against Salmonella typhimurium TA100 assessed as revertants at 9 uM incubated for 90 mins followed by drug washout measured after 2 days relative to positive control; type: toxicity, organism-based; conditions: salmonella enterica subsp. enterica serovar typhimurium, 1.5 h
Plasmodium falciparum [35] = assay: Antiplasmodial activity against chloroquine-resistant Plasmodium falciparum K1 infected in human erythrocytes assessed as inhibition of [3H]hypoxanthine incorporation incubated for 48 hrs prior to [3H]hypoxanthine addition measured after 48 hrs by liquid scintillation counting; type: functional, organism-based

Vd (Homo sapiens [2]): 200 L/kg | Vd (Homo sapiens [11]): 200 L/kg | half-life [13]: 20 days
SMILES: CCN(CC)CCCC(C)Nc1ccnc2cc(Cl)ccc12 (configuration not stated) [CHLOROQUINE]
Activity (Salmonella typhimurium [1]): 36% | CC50 at 24 h [3]: > 80000 nM | Activity (Salmonella typhimurium [4]): 14% | Activity (Salmonella typhimurium [5]): 23% | Activity (Salmonella typhimurium [6]): 50% | Activity (Salmonella typhimurium [7]): 61% | Activity (Salmonella typhimurium [8]): 24% | Activity (Salmonella typhimurium [9]): 26% | Activity (Salmonella typhimurium [10]): 19% | Activity (Salmonella typhimurium [12]): 38% | Activity (Salmonella typhimurium [14]): 7% | CC50 at 24 h [15]: 4300 nM | Activity (Salmonella typhimurium [16]): 21% | Activity (Salmonella typhimurium [17]): 29%

SMILES: Clc1ccc(C(Nc2ccnc3cc(Cl)ccc23)c2ccc(Cn3ccnc3)cc2)cc1 (racemic)
Activity (Salmonella typhimurium [18]): 2% | Activity (Salmonella typhimurium [19]): 7% | CC50 at 24 h [3]: 35000 nM | IC50 (Plasmodium falciparum [20]): 30 nM | Activity (Salmonella typhimurium [21]): 0% | Activity (Salmonella typhimurium [22]): 2% | IC50 (Plasmodium falciparum [23]): 57 nM | Activity (Salmonella typhimurium [24]): 5% | IC50 (Plasmodium falciparum [25]): 18 nM | Activity (Salmonella typhimurium [26]): 6% | Ratio IC50 (Plasmodium falciparum [27]): 1.2 | Activity (Salmonella typhimurium [28]): 6% | Activity (Salmonella typhimurium [29]): 2% | Activity (Salmonella typhimurium [30]): 0% | Ratio IC50 (Plasmodium falciparum [31]): 1.9 | Activity (Salmonella typhimurium [32]): 3% | Activity (Salmonella typhimurium [33]): 3% | Activity (Salmonella typhimurium [34]): 7% | CC50 at 24 h [15]: 22000 nM | IC50 (Plasmodium falciparum [35]): 22 nM
